Key:
[1] = target: T1, high affinity transport of 3H-L-glutamate into synaptosomes (Rattus norvegicus, UniProt P31596); test: Synaptosomal uptake of 3H-L-glutamate; type: biochemical; details: 10 μM 3H-L-glutamate; for inhibition of glutamate transport (in words): isomers at similar concentrations (20 μM)
T1 construct: Synaptosomes were prepared by the procedure of Booth et al; from tissue; host or cells: brain synaptosomes (Ficoll/sucrose gradient)
Description: Synaptosomal uptake of ^3 H-L-glutamate (10 μM) was followed at 37° C. in the presence and absence of 20 μM PDC isomers. The curves shown are from representative experiments (n=2-4 rate determinations) and are reported as mean ±SD. Transport rates were determined by linear regression analysis and have been corrected for background and non-specific uptake. The effect of the PDC isomers and is reported as % of control transport rate ±SD (n=8-16 rate determinations).
(§1) The Synaptosomes were prepared by the procedure of (a) Booth, R. F. G.; Clark, J. B., Biochem J. 176, 365 (1978) and assayed for synaptosomal uptake as described by (b) Kuhar, M. M.; Zarbin, M. J., Neurochem 31, 251 (1978), both which are incorporated by reference herein. The binding specificities of the four PDC isomers were determined by testing both their ability to inhibit the high affinity transport of ^3 H-L-glutamate into synaptosomes and to block the binding of radioligands to each of the three receptor sites in a synaptic plasma membrane preparation (SPM) (Synaptic plasma membranes were prepared and NMDA receptor binding quantified as described by Monaghan, D. T.; Cotman, C. W., Proc. Nat. Acad. Sci. U.S.A. 83, 7532 (1986) incorporated by reference herein). When included in the ^3 H-L-glutamate uptake assay, as represented in FIG. 3, at only a 2-fold excess relative to L-glutamate (10 μM of ^3 H-L-glutamate vs. 20 μM of 7), the L-trans-2,4-PDC isomer reduced the rate of synaptosomal transport from control levels of 1.13 nmol min^-1 mg-protein^-1 to 0.16 nmol min^-1 mg-protein^-1. […] This selective inhibition by L-trans-2,4-PDCclearly delineates a preferred configurational and/or conformational relationship for binding to the glutamate uptake protein.
Synaptosomes were prepared by the procedure of Booth et al., (Biochem J. 176:365 (1978) incorporated by reference herein), using Ficoll/sucrose gradient centrifugation. Uptake of ^3 H-L-glutamate was followed essentially as described by Kuhar and Zarbin (J. Neurochem 31:[…] (1978) incorporated by reference herein.) Synaptosomes were suspended in a physiological buffer (Krebs-Ringer phosphate buffer) and preincubated at 37° C. for 5 min. The uptake assay was initiated by the addition of ^3 H-L-glutamate (0.1-100 μM). Aliquots were removed at appropriate times (0.5-10 min) and were rapidly filtered on GF/F glass fiber filters. The filters were rapidly washed with 20 volumes of ice cold buffer. Radioactivity present on the filters was determined by liquid scintillation counting. Uptake rates were corrected for both background (i.e., uptake at 0 min) and leakage (i.e., uptake at 0° C.).

QA receptors = test: 3H-AMPA binding to QA receptors in synaptic plasma membranes; design: species or system rat; details: for ^3 H-AMPA binding to QA receptors, % of Control: diacid 100 μM, % of control binding ± s.d., corrected for nonspecific binding
Description: (§2) To further characterize the pharmacological specificity of the PDC conformers and identify other potential sites at which the transport inhibitor could bind, the compounds were tested for their ability to inhibit the binding of ^3 H-L-glutamate to NMDA receptors, ^3 H-KA binding to KA receptors, and ^3 H-AMPA (α-amino-3-hydroxy-5-methylisoxazole-4-propionic acid) binding to QA receptors. Binding to kainate receptors was quantified by the procedures of (a) Simon, J. R.; Contrera, J. F.; Kuhar, M. J., J. Neurochem 26, 141 (1976), and (b) London, E. D.; Coyle, J. T.; Molec. Pharm. 15, 492 (1979) which are incorporated by reference herein. Binding to quisqualate receptors (QA) were quantified as described by (c) Honore, T.; Lauridsen, J.; Krogsgaard-Larsen, P. J., Neurochem 1982, 38, 173, which are incorporated by reference herein. […] This lack of interaction with any of the excitatory receptors is in direct contrast with its potent inhibition of transport and identifies L-trans-2,4-PDC as a specific probe of the L-glutamate transport system.
(§3) Synaptic plasma membrane (SPMS) were prepared as previously described (Monaghan, D. T.; Cotman, C. W., Proc. Nat. Acad. Sci. U.S.A. 83:7532 (1986) incorporated by reference herein.) Briefly, male Sprague-Dawley rats (200 g) were decapitated, their forebrains were rapidly removed, and the brain tissue homogenized in 0.32M sucrose. Following differential centrifugation, a membrane fraction enriched in synapses, but low in myelin and mitochondria, was obtained. This membrane fraction was washed three times with […] Tris-acetate buffer, pH 7.2, and diluted into the appropriate assay buffer to about 200 μg protein/ml.
(§4) Binding to NMDA, KA, and QA receptors were quantified with ^3 H-L-glutamate, ^3 H-KA, and ^3 H-AMPA respectively. The binding assays were carried out using optimally selective conditions of time, temperature, and buffer for each of the three receptor classes. ^3 H-L-Glutamate binding was quantified under conditions that selectively label NMDA receptors. The SPMs were incubated with ^3 H-L-glutamate (10 nM, 50.9 Ci/mmol) in 50 mM Tris-acetate, pH 7.0, at 4° C. for 30 minutes. Non-specific binding was determined by the inclusion of 500 μM L-glutamate. KA receptors were quantified as previously described. ^3 H-KA (10 nM, 60 Ci/mmol) binding was determined in 50 mM Tris-citrate buffer, pH 7.0, at 4° C. for 30 min. Non-specific binding was determined by the inclusion of 100 μM unlabeled KA. QA receptors were measured with ^3 H-AMPA binding as described by Honore et al. J. Neurochem. 38:173-178 (1982). Essentially, 3 H-AMPA (10 nM, 27.6 Ci/mmol) binding is quantified in 50 mM Tris-acetate buffer, pH 7.2, containing 100 mM KSCN for 30 minutes at 4° C. Non-specific binding was determined by the inclusion of 100 μM quisqualic acid. In the inhibition studies, the conformationally defined analogues were included in the assay mixture at the appropriate concentrations (0.1-200 μM). The assays (total volume, 1.08 mL) were initiated by the addition of radiolabel and terminated by centrifugation (Beckman Microfuge, top speed, 3 min). Unbound radioligand in the supernatant was removed by suction and the radioactivity in the pellet quantified by liquid scintillation counting. All of the binding studies were carried out as 2 sets of triplicates within a single experiment and each experiment was repeated at least 3 times.

KA receptors = test: 3H-KA binding to KA receptors in synaptic plasma membranes; design: species or system rat; details: for ^3 H-KA binding to KA receptors, % of Control: diacid 100 μM, % of control binding ± s.d., corrected for nonspecific binding
Description: as §2, §3, §4

NMDA receptors = test: 3H-L-glutamate binding to NMDA receptors in synaptic plasma membranes; design: species or system rat; details: for inhibition of ^3 H-L-glutamate binding to the NMDA receptor (in words): as reported in Table 1; for ^3 H-L-GLU binding to NMDA receptors, % of Control: % of control binding ± s.d., corrected for nonspecific binding
Description: as §1, §2, §3
Binding to NMDA, KA, and QA receptors were quantified with ^3 H-L-glutamate, ^3 H-KA, and ^3 H-AMPA respectively. The binding assays were carried out using optimally selective conditions of time, temperature, and buffer for each of the three receptor classes. ^3 H-L-Glutamate binding was quantified under conditions that selectively label NMDA receptors. The SPMs were incubated with ^3 H-L-glutamate (10 nM, 50.9 Ci/mmol) in 50 mM Tris-acetate, pH 7.0, at 4° C. for 30 minutes. Non-specific binding was determined by the inclusion of 500 μM L-glutamate. KA receptors were quantified as previously described. ^3 H-KA (10 nM, 60 Ci/mmol) binding was determined in 50 mM Tris-citrate buffer, pH 7.0, at 4° C. for 30 min. Non-specific binding was determined by the inclusion of 100 μM unlabeled KA. QA receptors were measured with ^3 H-AMPA binding as described by Honore et al. J. Neurochem. 38:173-178 (1982). […]

T1 sequence (P31596 whole entry): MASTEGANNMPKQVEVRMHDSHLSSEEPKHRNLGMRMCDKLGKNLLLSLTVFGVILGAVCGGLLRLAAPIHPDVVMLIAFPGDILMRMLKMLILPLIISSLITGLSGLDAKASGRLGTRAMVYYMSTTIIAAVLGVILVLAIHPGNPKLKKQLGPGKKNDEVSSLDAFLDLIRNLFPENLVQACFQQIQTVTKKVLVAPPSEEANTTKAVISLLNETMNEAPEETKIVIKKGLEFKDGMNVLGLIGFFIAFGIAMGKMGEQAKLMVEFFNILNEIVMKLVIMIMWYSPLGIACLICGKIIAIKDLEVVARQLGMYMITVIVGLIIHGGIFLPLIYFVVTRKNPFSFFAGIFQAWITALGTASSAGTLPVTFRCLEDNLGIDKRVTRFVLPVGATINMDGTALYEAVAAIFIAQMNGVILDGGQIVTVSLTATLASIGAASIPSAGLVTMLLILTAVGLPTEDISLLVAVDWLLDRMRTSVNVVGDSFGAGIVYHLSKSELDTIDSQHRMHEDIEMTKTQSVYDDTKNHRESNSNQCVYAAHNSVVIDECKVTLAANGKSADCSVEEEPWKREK

O=C(O)[C@@H]1CN[C@@H](C(=O)O)C1 [Diacid 11, trans-4-Carboxy-D-proline]
inhibition of glutamate transport (in words) [1]: substantially less effective | ^3 H-AMPA binding to QA receptors, % of Control (QA receptors): 108 ± 11 % of Control | ^3 H-KA binding to KA receptors, % of Control (KA receptors): 92 ± 6 % of Control | inhibition of ^3 H-L-glutamate binding to the NMDA receptor (in words) (NMDA receptors): weakly inhibiting | ^3 H-L-GLU binding to NMDA receptors, % of Control (NMDA receptors; diacid 100 μM): 95 ± 12 % of Control

O=C(O)[C@H]1CN[C@H](C(=O)O)C1 [Diacid 7, trans-4-Carboxy-L-proline]
rate of synaptosomal transport ([1]; 20 μM compound, 37° C., control level 1.13): 0.16 nmol min^-1 mg-protein^-1 | inhibition at 20 µM ([1]; 20 μM compound, read-out: reduction in the rate of uptake): > 80% | inhibition of glutamate transport (in words) [1]: potent inhibitor | inhibition of radioligand binding to QA receptors (in words) (QA receptors; compound in 10^4 -fold excess): did not significantly inhibit | ^3 H-AMPA binding to QA receptors, % of Control (QA receptors): 109 ± 13 % of Control | inhibition of radioligand binding to KA receptors (in words) (KA receptors; compound in 10^4 -fold excess): did not significantly inhibit | ^3 H-KA binding to KA receptors, % of Control (KA receptors): 102 ± 10 % of Control | inhibition of ^3 H-L-glutamate binding to the NMDA receptor (in words) (NMDA receptors): did not significantly inhibit | ^3 H-L-GLU binding to NMDA receptors, % of Control (NMDA receptors; diacid 100 μM): 87 ± 10 % of Control

O=C(O)[C@@H]1CN[C@H](C(=O)O)C1 [Diacid 4, cis-4-Carboxy-L-proline]
inhibition of glutamate transport (in words) [1]: substantially less effective | ^3 H-AMPA binding to QA receptors, % of Control (QA receptors): 102 ± 12 % of Control | ^3 H-KA binding to KA receptors, % of Control (KA receptors): 100 ± 12 % of Control | ^3 H-L-GLU binding to NMDA receptors, % of Control (NMDA receptors; diacid 100 μM): 89 ± 13 % of Control

O=C(O)[C@H]1CN[C@@H](C(=O)O)C1 [Diacid 14, cis-4-Carboxy-D-proline]
inhibition of glutamate transport (in words) [1]: substantially less effective | ^3 H-AMPA binding to QA receptors, % of Control (QA receptors): 110 ± 9 % of Control | ^3 H-KA binding to KA receptors, % of Control (KA receptors): 101 ± 6 % of Control | ^3 H-L-GLU binding to NMDA receptors, % of Control (NMDA receptors; diacid 20 μM): 76 ± 5 % of Control | ^3 H-L-GLU binding to NMDA receptors, % of Control (NMDA receptors; diacid 100 μM): 38 ± 12 % of Control

From patent US5942537A, “Method of inhibiting the transport of L-glutamate to treat CNS disorders” (The Regents of the University of California, priority 1993, dated 1999)
